In assay [1] the test system is MDA-MB-435. Description: Cytotoxicity against human MDA-MB-435 cells assessed as growth inhibition. The format is functional, cell-based.
The nature of assay [2]: Induction of interphase microtubule depolymerization in rat A10 cells. The assay is classed as cell-based.
Assay [3] can be described thus: Induction of interphase microtubule depolymerization in rat A10 cells after 18 to 24 hrs by DAPI staining-based indirect immunofluorescence assay. The assay is classed as cell-based.
For another assay, the target named is Tubulin. Kind of assay: Displacement of [3H]colchicine from tubulin (unknown origin). The assay is classed as protein-complex assay, Homo sapiens. A general note: Loss of bound radioactivity is the signal in a displacement assay; it reports binding, not function.
Assay [4] concerns MDA-MB-435. Description: Cytotoxicity against human MDA-MB-435 cells assessed as growth inhibition after 72 hrs by SRB assay. The assay is classed as functional, cell-based. To be noted: MDA-MB-435, 72 h. Background: The SRB assay estimates cell density from bound dye.
A further assay concerns Jurkat. Description: Cytotoxicity against human Jurkat cells assessed as growth inhibition. The assay is classed as functional, cell-based.

Some results are limits rather than exact numbers.

The EC50 is the concentration giving half of the maximal effect. As a reminder, the pEC50 is −log10 of the EC50, conventionally taken in molar units. The low end stands for a large EC50, the high end for a small EC50. Usually Kd stands for a measure of binding affinity in units of concentration. Read a low Kd as a tighter complex. By pKd is commonly meant −log10 of the Kd, conventionally taken in molar units. A low value points to a high Kd.

For `CCOC(=O)c1[nH]c(Br)c(-c2cccc(OC)c2)c1Br`, the IC50 in the assay with MDA-MB-435 [1] (read-out: IC50) was determined as 0.633 µM. In the assay on MDA-MB-435 [1] (read-out: pIC50 (converted)), the IC50 was 0.631 µM. In assay [2], this compound yielded an EC50 of 2.4 µM and a pEC50 of 5.62.

In assay [3], `COc1ccc(-c2c(Br)[nH]c(C(=O)OCCN(C)C)c2Br)cc1OC` returned an EC50 of 50 µM and a pEC50 of 4.3.

In assay [2], `CCOC(=O)c1[nH]c(Br)c(-c2cc(OC)c(OC)c(OC)c2)c1Br` had an EC50 of 71 µM and a pEC50 of 4.15.

On Tubulin, `O=c1c(O)c(-c2ccc(O)cc2O)oc2cc(O)cc(O)c12` [MORIN] had a Kd of over 100 µM and a pKd of 3.7.

Regarding `CCCCCCOC(=O)c1[nH]c(Br)c(-c2ccc(OC)c(OC)c2)c1Br`, in assay [3], the EC50 is 14 µM and the pEC50 is given as 4.85.

For the compound `Cc1nc2c(c(N(C)c3ccccc3)n1)C[C@@H](C)C2`, in the assay with MDA-MB-435 [1] (read-out: IC50), the IC50 was 7.1 µM. Further, the IC50 in the assay on MDA-MB-435 [1] (read-out: pIC50 (converted)) was 7.08 µM. In assay [2], this compound displayed an EC50 of 520 µM and a pEC50 of 3.28.

On to `COc1ccc(N(C)c2nc(C)nc3cc[nH]c23)cc1`, for which, in assay [3], the EC50 is 1.2 µM and the pEC50 was 5.92. Also, the IC50 in the assay with MDA-MB-435 [4] (read-out: IC50) was 0.097 µM. The IC50 in the assay on MDA-MB-435 [4] (read-out: pIC50 (converted)) was 0.0955 µM.

Consider `CCOC(=O)c1[nH]c(Br)c(-c2ccc3c(c2)OCCO3)c1Br`, for which the IC50 with MDA-MB-435 [1] (read-out: IC50) was 4.4 µM. Moreover, in the assay with MDA-MB-435 [1] (read-out: pIC50 (converted)), the IC50 is 4.37 µM. In assay [2], the EC50 turned out to be 21 µM and the pEC50 is 4.68.

`COc1ccc2c(c1)CCCN2c1nc(C)nc2cc[nH]c12`: in assay [3], the EC50 was 0.23 µM and the pEC50 amounted to 6.64. In the assay with MDA-MB-435 [4] (read-out: IC50), the IC50 stood at 0.043 µM. For the same compound, in the assay with MDA-MB-435 [4] (read-out: pIC50 (converted)), the IC50 is 0.0427 µM.

As for `CCOC(=O)c1[nH]c(C(=O)c2ccc(OC)cc2)c(-c2ccc(OC)cc2)c1Br`, in the assay on MDA-MB-435 [1] (read-out: IC50), the IC50 came out at 100 µM. For the same compound, the IC50 with MDA-MB-435 [1] (read-out: pIC50 (converted)) is 100 µM. In assay [2], this compound gave an EC50 of 500 µM and a pEC50 of 3.3.

In the case of `CCOC(=O)c1cc(-c2ccc(OC)cc2)c(C(=O)c2ccc(OC)cc2)[nH]1`, the results for the IC50 in the assay on MDA-MB-435 [1] (read-out: IC50) and with MDA-MB-435 [1] (read-out: pIC50 (converted)) were 3 µM and 3.02 µM, respectively. It took 100 µM to reach a half-maximal effect in assay [2] (EC50). In addition, the pEC50 in assay [2] was 4.

For the compound `COc1cc2c(c(N)c1OC)C(=O)/C(=C/c1cc(C)c(O)c(C)c1)C2`, the IC50 with Jurkat (read-out: IC50) and with Jurkat (read-out: pIC50 (converted)) was 0.001 µM throughout.

Turning to `CCOC(=O)c1[nH]c(Br)c(-c2ccc(C)cc2)c1Br`, the IC50 in the assay on MDA-MB-435 [1] (read-out: pIC50 (converted)) was 2.24 µM. Besides, in assay [2], a half-maximal response (EC50) required 75 µM and the pEC50 is recorded as 4.12.

Regarding `CCOC(=O)c1[nH]c(Br)c(-c2ccc(SC)cc2)c1Br`, the IC50 with MDA-MB-435 [1] (read-out: IC50) was 0.626 µM; in the assay with MDA-MB-435 [1] (read-out: pIC50 (converted)), 0.631 µM. The same compound yielded an EC50 in assay [2] of 19 µM. Moreover, the pEC50 in assay [2] amounted to 4.73.

Consider `COC(=O)c1[nH]c(Br)c(-c2ccc(OC)c(OC)c2)c1Br`, for which, in assay [3], the EC50 was determined as 5 µM and the pEC50 came out at 5.3.

As for `CCOC(=O)c1[nH]c(Br)c(-c2ccc(OC)c(F)c2)c1Br`, the IC50 was 0.539 µM with MDA-MB-435 [1] (read-out: IC50) and 0.537 µM in the assay with MDA-MB-435 [1] (read-out: pIC50 (converted)). In addition, in assay [2], the EC50 came to 14 µM. The compound further gave a pEC50 in assay [2] of 4.85.

For `CCOC(=O)c1[nH]c(Br)c(-c2c[nH]c3ccccc23)c1Br`, the IC50 in the assay with MDA-MB-435 [1] (read-out: IC50) and in the assay with MDA-MB-435 [1] (read-out: pIC50 (converted)) was 2 µM each time. In assay [2], this compound registered an EC50 of 18 µM. Also, the pEC50 in assay [2] is given as 4.75.

Regarding `COc1ccc(-c2c(Br)[nH]c(C(=O)OC(C)C)c2Br)cc1OC`, in assay [3], the midpoint of the response, the EC50, lay at 3.6 µM and the pEC50 came to 5.44.

In assay [2], `CCOC(=O)c1[nH]cc(-c2ccc(OC)cc2)c1-c1ccc(OC)cc1` had an EC50 of 500 µM and a pEC50 of 3.3.

Consider `CCOC(=O)c1[nH]c(Br)c(-c2ccc(Cl)cc2)c1Br`, for which, in assay [2], the EC50 is 83 µM and the pEC50 came to 4.08.

As to `CCOC(=O)c1[nH]c(Br)c(-c2ccc3cc(OCC)ccc3c2)c1Br`, the IC50 in the assay on MDA-MB-435 [1] (read-out: IC50) and with MDA-MB-435 [1] (read-out: pIC50 (converted)) was 2 µM in each case. This compound also yielded an EC50 in assay [2] of 33 µM. This compound returned a pEC50 in assay [2] of 4.48.

On to `COc1ccc([C@H]2[C@H](c3cc(OC)c(OC)c(OC)c3)C(C)=NN2C(C)=O)cc1O`, for which, in assay [2], it took 4.5 µM to reach a half-maximal effect (EC50) and the pEC50 was 5.35.

On to `CCOC(=O)c1[nH]c(Br)c(-c2ccc3c(c2)OCO3)c1Br`, for which, in the assay on MDA-MB-435 [1] (read-out: IC50), the IC50 is 1.8 µM. For the same compound, the IC50 in the assay on MDA-MB-435 [1] (read-out: pIC50 (converted)) was 1.82 µM. In assay [2], this compound showed an EC50 of 30 µM and a pEC50 of 4.53.

On to `CCOC(=O)c1[nH]c(Br)c(-c2ccc(Cl)c(Cl)c2)c1Br`, for which the IC50 in the assay on MDA-MB-435 [1] (read-out: IC50) stood at 0.806 µM. Further, the IC50 in the assay on MDA-MB-435 [1] (read-out: pIC50 (converted)) is 0.813 µM. In assay [2], the EC50 was 9.9 µM and the pEC50 is reported as 5.

`COc1ccc(Nc2nc(C)nc3c2C[C@@H](C)C3)cc1`: the IC50 with MDA-MB-435 [1] (read-out: IC50) came out at 51 µM. Moreover, the IC50 in the assay on MDA-MB-435 [1] (read-out: pIC50 (converted)) was 51.3 µM. In assay [2], this compound displayed an EC50 of 520 µM and a pEC50 of 3.28.

The compound `COc1ccc(-c2oc3cc(O)c(OC)cc3c(=O)c2OC)cc1O` had a Kd at Tubulin of 6 µM.

The values above are taken from ChEMBL document CHEMBL2429717 (J Med Chem, 2013).
